Literature values, collected in patent publication US6403120B1 (Wyeth, priority 1996, dated 2002).

Details: plural daily dosing regimen

patients experiencing nausea: about forty five
patients with vomiting: about seventeen
SMILES: COc1ccc(C(CN(C)C)C2(O)CCCCC2)cc1.Cl (centres unmarked) [venlafaxine hydrochloride, 1-[2-(dimethylamino)-1-(4methoxyphenyl)ethyl]cyclohexanol hydrochloride]
